According to patent publication US20190233884A1 (University of Southern California, priority 2016, published 2019):

System: patients with refractory metastatic colorectal cancer (mCRC)
Assay: PFS, OS and disease control in the testing (validation) cohort of refractory mCRC patients receiving TAS-102 (n=129, Italy), by baseline characteristics, SNP genotype and toxicity
Format: in vivo, human
Settings: validation cohort
Method: All patients underwent the treatment in salvage-line setting. […]
(§1) Genomic DNA was extracted from peripheral whole blood in patients of all cohorts using the QIAmp Kit (Qiagen, Valencia, Calif., USA) according to the manufacturer's protocol (www.qiagen.com). The candidate SNPs were genotyped using PCR-based direct DNA sequence analysis by ABI 3100A Capillary Genetic Analyzer and Sequencing Scanner v1.0 (Applied Biosystems). Amplification of extracted DNA was carried out using both forward and reverse primers for each gene polymorphism as shown in Table 1. […] The investigators analyzing SNPs were blinded to the clinical data of the study patients.
The primary endpoint in this study was progression-free survival (PFS), and the secondary endpoints were overall survival (OS) and disease control rate (DCR). PFS was calculated from the date of starting treatment to the first observation of disease progression or death from any cause. If a patient had no disease progression or death, PFS was censored at the date of last follow up. OS was calculated from the date of starting treatment until the date of death from any cause or the date of the last follow-up, at which point OS was censored. The disease control rate (DCR) was defined as the proportion of patients who achieved a stable disease (SD) or […] according to RECISTv1.1. Chi-square test was used to examine the difference in baseline patient characteristics among the three cohorts. Allelic distribution of all SNPs by ethnicity for deviation from Hardy-Weinberg equilibrium and the allelic frequencies of SNPs were tested using the Chi-square tests with one degree of freedom. The associations between candidate SNPs and disease control, and toxicities were examined using contingency tables and Fisher's exact test. The associations of SNPs with PFS and OS were analysed using Kaplan-Meier curves and the log-rank test. Because the true mode of inheritance of candidate SNPs was not established yet, a codominant or dominant genetic model if appropriate was considered.
All patients underwent the treatment in salvage-line setting. […] In all patients, adverse events were graded according to the Common Terminology Criteria for Adverse Events, version 4.0. […]
as §1, with “tested” for “genotyped”, “Biosystems).” for “Biosystems). Amplification of extracted DNA was carried out using both forward and reverse primers for each gene polymorphism as shown in Table 1.”, “data.” for “data of the study patients.”
The primary endpoint in this study was progression-free survival (PFS), and the secondary endpoints were overall survival (OS) and disease control rate (DCR).

[1] = ATM rs609429 C/G vs C/C (Ref.), multivariable
[2] = ATM rs609429 C/G vs C/C (Ref.), univariate
[3] = ATM rs609429 G/G vs C/C (Ref.), multivariable
[4] = ATM rs609429 G/G vs C/C (Ref.), univariate
[5] = Adjuvant Oxa No vs Yes (Ref.), univariate
[6] = Adjuvant history No vs Yes (Ref.), univariate
[7] = Age group ≥61 vs <61 (Ref.), univariate
[8] = BRAF status Mutant vs Wild type (Ref.), univariate
[9] = CHEK2 rs2267130 Any C vs T/T (Ref.), multivariable
[10] = CHEK2 rs2267130 Any C vs T/T (Ref.), univariate
[11] = CHEK2 rs2267130 C/C vs T/T (Ref.), multivariable
[12] = CHEK2 rs2267130 C/C vs T/T (Ref.), univariate
[13] = CHEK2 rs2267130 T/C vs T/T (Ref.), multivariable
[14] = CHEK2 rs2267130 T/C vs T/T (Ref.), univariate
[15] = Grading 3 vs 1-2 (Ref.), univariate
[16] = LN metastasis No vs Yes (Ref.), univariate
[17] = Liver metastasis No vs Yes (Ref.), univariate
[18] = Lung metastasis No vs Yes (Ref.), univariate
[19] = Mucinous histology No vs Yes (Ref.), univariate
[20] = Number of metastases >2 vs ≤2 (Ref.), univariate

## Trifluridine/tipiracil [TAS-102]
ATM rs609429 C/G
  Disease Control CR/PR/SD, patients n (%): 20 (32%)
  Median PFS (95% CI): 2.0 (1.9, 2.3) months
  PD, patients n (%): 43 (68%)
[1]
  HR OS (95% CI): 0.71 (0.39, 1.30)
  HR PFS (95% CI): 0.77 (0.50, 1.20)
[2]
  HR OS (95% CI): 0.71 (0.40, 1.26)
  HR PFS (95% CI): 0.76 (0.50, 1.16)
ATM rs609429 G/G
  Disease Control CR/PR/SD, patients n (%): 6 (40%)
  Median OS (95% CI): 5.8 (2.7, 7.1+) months
  Median PFS (95% CI): 2.0 (1.2, 6.1) months
  PD, patients n (%): 9 (60%)
[3]
  HR OS (95% CI): 1.43 (0.56, 3.65)
  HR PFS (95% CI): 1.32 (0.67, 2.59)
[4]
  HR OS (95% CI): 0.82 (0.34, 2.00)
  HR PFS (95% CI): 0.85 (0.45, 1.63)
Adjuvant Oxa No
  Median OS: 5.8 months
  Median PFS: 1.9 months
[5]
  HR OS: 1.17
  HR PFS: 1.06
Adjuvant Oxa Yes
  Median OS: 8.5+ months
  Median PFS: 2.0 months
Adjuvant history No
  Median OS: 5.5 months
  Median PFS: 1.9 months
[6]
  HR OS: 1.23
  HR PFS: 1.25
Adjuvant history Yes
  Median OS: 8.5+ months
  Median PFS: 2.0 months
Age group <61
  Median OS: 4.4 months
  Median PFS: 1.9 months
Age group ≥61
  Median OS: 9.0 months
  Median PFS: 2.0 months
[7]
  HR OS: 0.56
  HR PFS: 0.61
BRAF status Mutant
  Median OS: 3.3 months
  Median PFS: 1.8 months
[8]
  HR OS: 2.38
  HR PFS: 1.40
BRAF status Wild type
  Median OS: 5.8 months
  Median PFS: 2.0 months
CHEK2 rs2267130 Any C
  Disease Control CR/PR/SD, patients n (%): 29 (31%)
  Median OS (95% CI): 5.5 (4.4, 8.7+) months
  Median PFS (95% CI): 2.0 (1.8, 2.3) months
  PD, patients n (%): 65 (69%)
[9]
  HR OS (95% CI): 0.70 (0.38, 1.30)
  HR PFS (95% CI): 1.05 (0.66, 1.67)
[10]
  HR OS (95% CI): 0.94 (0.52, 1.69)
  HR PFS (95% CI): 1.10 (0.71, 1.72)
CHEK2 rs2267130 C/C
  Disease Control CR/PR/SD, patients n (%): 9 (29%)
  Median OS (95% CI): 5.4 (3.9, 7.1+) months
  Median PFS (95% CI): 2.0 (1.8, 2.4) months
  PD, patients n (%): 22 (71%)
[11]
  HR OS (95% CI): 0.48 (0.21, 1.09)
  HR PFS (95% CI): 0.87 (0.49, 1.54)
[12]
  HR OS (95% CI): 0.95 (0.45, 2.00)
  HR PFS (95% CI): 1.08 (0.62, 1.86)
CHEK2 rs2267130 T/C
  Disease Control CR/PR/SD, patients n (%): 20 (32%)
  Median PFS (95% CI): 2.0 (1.7, 2.3) months
  PD, patients n (%): 43 (68%)
[13]
  HR OS (95% CI): 0.83 (0.44, 1.58)
  HR PFS (95% CI): 1.17 (0.72, 1.91)
[14]
  HR OS (95% CI): 0.93 (0.50, 1.75)
  HR PFS (95% CI): 1.12 (0.69, 1.79)
CHEK2 rs2267130 T/T
  Disease Control CR/PR/SD, patients n (%): 8 (24%)
  Median OS (95% CI): 5.8 (3.7, 9.0+) months
  Median PFS (95% CI): 1.9 (1.9, 2.0) months
  PD, patients n (%): 26 (76%)
Grading 1-2
  Median OS: 9.0 months
  Median PFS: 2.1 months
Grading 3
  Median OS: 5.3 months
  Median PFS: 1.9 months
[15]
  HR OS: 1.38
  HR PFS: 1.15
LN metastasis No
  Median OS: 5.4 months
  Median PFS: 2.0 months
[16]
  HR OS: 1.24
  HR PFS: 0.99
LN metastasis Yes
  Median OS: 8.8+ months
  Median PFS: 2.0 months
Liver metastasis No
  Median OS: 8.7+ months
  Median PFS: 2.4 months
[17]
  HR OS: 0.69
  HR PFS: 0.52
Liver metastasis Yes
  Median OS: 5.4 months
  Median PFS: 1.9 months
Lung metastasis No
  Median OS: 4.1 months
  Median PFS: 1.9 months
[18]
  HR OS: 1.46
  HR PFS: 1.62
Lung metastasis Yes
  Median OS: 8.8+ months
  Median PFS: 2.1 months
Mucinous histology No
  Median OS: 9.0 months
  Median PFS: 2.0 months
[19]
  HR OS: 0.72
  HR PFS: 0.97
Mucinous histology Yes
  Median OS: 5.5 months
  Median PFS: 1.9 months
Number of metastases >2
  Median OS: 8.8+ months
  Median PFS: 2.0 months
[20]
  HR OS: 0.83
  HR PFS: 1.18
Number of metastases ≤2
  Median OS: 5.5 months
  Median PFS: 2.0 months
Performance status ECOG 0
  Median OS: 9.0 months
  Median PFS: 2.0 months
Performance status ECOG 1+
  Median OS: 4.1 months
  Median PFS: 1.9 months
